# In patent US20210317090A1, “AMINO ACID DEPLETION AGENTS AS ANTIPROLIFERATIVE AGENTS” (University of Central Florida Research Foundation, Inc., priority 2018, published 2021):
# Test system: L3.6pl cells
# Assay: Intracellular polyamine and Ant-44 levels (N-dansylation, HPLC) in L3.6pl cells
# Type: cell-based, human
# Details: for Intracellular Putrescine / Intracellular Spermidine / Intracellular Spermine / Intracellular Total Polyamines: 72 hr
# Protocol: One explanation for the enhanced potency was that compound 10 (1666.255) increased polyamine import and, as a result, may have increased intracellular Ant-44 levels. To test this hypothesis, L3.6pl cells were dosed with a fixed concentration of Ant-44 (2 μM) alone and in combination with increasing concentrations of compound 10 (1666.255) to explore how this combination therapy affected intracellular polyamine pools and Ant-44 import.
# FIG. 7 is an example according to various embodiments, illustrating both single and combination therapies in L3.6pl cells with Ant-44 and compound 10 (1666.255) after 72 h incubation. Polyamine and Ant-44 levels (expressed as nmoles/mg protein) and relative % viability versus an untreated control were observed after 72 h incubation at 37° C. The untreated control was run in parallel and polyamine levels determined in duplicate and % cell viability in triplicate. Ant-44 was dosed at a fixed concentration of 2 μM and compound 10 (1666.255) at increasing concentrations. Cell viability tracked well with total intracellular polyamine levels (sum of putrescine, spermidine and spermine).
# It was concluded that compound 10 was neither acting as a PTI nor as a polyamine import agonist. How then could it lead to intracellular polyamine depletion? […] To test this hypothesis, L3.6pl cells were dosed with increasing concentrations of compound 10 (1666.255) without Ant44. If compound 10 (1666.255) was acting on polyamine pools, one should see a reduction in total polyamine levels as well as decreased cell viability in a dose dependent manner upon increasing levels of 10. Therefore, the toxicity of compound 10 and intracellular polyamine levels after 72 h exposure to 10 were measured (FIG. 8).
# FIG. 8 is an example according to various embodiments, illustrating intracellular polyamine levels (expressed as nmoles polyamine/mg protein) in L3.6pl cells dosed with increasing concentrations of compound 10 (1666.255) after cells were incubated for 72 h at 37° C. The untreated control was run in parallel and polyamine levels determined in duplicate via N-dansylation and HPLC. The data was averaged and reported as nmol polyamine (PA)/mg protein.
# This example illustrates aspects according to various embodiments pertaining to a 72 h experiment with Compound 10 in L3.6pl cells. Ten milliliters of a cell suspension containing L3.6pl human pancreatic cancer cells (50,000 cells/mL) and aminoguanidine (1 mM) were placed in treated plastic Petri dishes (d=9 cm) and incubated overnight at 37° C. After 24 h, the cells were dosed with compound 10 at 2 μM, 5 μM, or 7 μM. (Note: Stock solutions of 10 at 2, 5, and 7 mM were dissolved in phosphate buffered saline (PBS) and were filtered through a 0.2 μm filter prior to use. The experiments were maintained with a total volume of 10.01 mL where 10 mL of the cell suspension was placed in a plastic dish and each compound or the equivalent PBS volume was added to make up the total volume 10.01 mL for each dish. For example, for the control experiment PBS (10 μL) was added to make up the total volume (10 mL+10 μL=10.01 mL). After 72 h incubation, the cells were collected first by pipetting off the supernatant containing floating dead cells from the culture dish as well as media and placing them into 15 mL tubes. The supernatant containing floating cells was centrifuged (4 min at 1,000 rpm). The cell-free supernatant (supernatant #1) was collected into a new 15 mL tube and quantified (˜8.6 mL) and was then stored frozen and was later quantified by LCMS to investigate the media composition of particular polyamine and amino acid analytes. The attached cells on the dish were washed with PBS (5 mL). The PBS wash was removed by suction and additional PBS (2 mL) was added and again suctioned off to provide twice-washed cells still adhered to the dish. Trypsin (2 mL) was then added to each dish and incubated (3-5 min) until all the cells were detached. Fresh media (8 mL) was added to quench the trypsin. […]
structure (smiles),measurement,setting,value
"CC(C)CCN1CCN(C(CNCc2ccccc2)CC2CCCCC2)CC1CC(C)C.Cl.Cl.Cl (stereo not shown) [Compound 10, Benzyl-{3-cyclohexyl-2-[3-isobutyl-4-(3-methyl-butyl)-piperazin-1-yl]-propyl}-amine trihydrochloride salt]",Intracellular Putrescine,2 μM,6.2 ± 0.7 nmol polyamine/mg protein
same,Intracellular Spermidine,2 μM,27.1 ± 2.4 nmol polyamine/mg protein
same,Intracellular Spermine,2 μM,16.1 ± 0.0 nmol polyamine/mg protein
same,Intracellular Total Polyamines,2 μM,49.5 ± 3.1 nmol polyamine/mg protein
same,Intracellular Putrescine,5 μM,6.0 ± 0.9 nmol polyamine/mg protein
same,Intracellular Spermidine,5 μM,17.6 ± 1.8 nmol polyamine/mg protein
same,Intracellular Spermine,5 μM,14.9 ± 1.1 nmol polyamine/mg protein
same,Intracellular Total Polyamines,5 μM,38.5 ± 3.4 nmol polyamine/mg protein
same,Intracellular Putrescine,7 μM,5.9 ± 0.3 nmol polyamine/mg protein
same,Intracellular Spermidine,7 μM,15.6 ± 0.1 nmol polyamine/mg protein
same,Intracellular Spermine,7 μM,12.7 ± 0.6 nmol polyamine/mg protein
same,Intracellular Total Polyamines,7 μM,34.2 ± 0.9 nmol polyamine/mg protein
same,intracellular level of Ant-44,"Ant-44 2 μM with compound 10 at 1 μM, 72 h",2.08 nmol Ant44/mg protein
